Data published in US20250312499A1, “KISSPEPTIN RECEPTOR (KISS1R) TARGETED THERAPEUTICS AND USES THEREOF” (priority 2024, published 2025).
Numbered stars: 1 amine (or outer) side, 2 acyl side, 3 side chain; on linkers, the order of the positions; unused ones are H or OH. Square brackets hold non-standard residues; d marks the D form. Peptide text beside a SMILES is read from it. * marks the point of attachment. DOTA = O=C(O)CN1CCN(CC(=O)O)CCN(CC(=O)*)CCN(CC(=O)O)CC1; Gly(N-(3-F-4-Me-benzyl)) = Cc1ccc(CNCC(=O)*)cc1F; Gly(Nα-4-MeO-benzyl) = COc1ccc(CNCC(=O)*)cc1; Butanoyl(4-(4-MePh)) = Cc1ccc(CCCC(=O)*)cc1; Api(1-amidino) = N=C(N)N1CCC(N)(C(=O)O)CC1; Hydrocinnamoyl(4-Me) = Cc1ccc(CCC(=O)*)cc1; Hydrocinnamoyl(4-I) = O=C(CCc1ccc(I)cc1)*; Phe(4-CN) = N#Cc1ccc(C[C@H](N)C(=O)O)cc1; Phe(3-F) = N[C@@H](Cc1cccc(F)c1)C(=O)O; d2Nal = N[C@H](Cc1ccc2ccccc2c1)C(=O)O; X1 = O=C(CN1CCC(N[*:1])CC1)[*:2]; 4Pal = N[C@@H](Cc1ccncc1)C(=O)O; d4Pal = N[C@H](Cc1ccncc1)C(=O)O; Cha = N[C@@H](CC1CCCCC1)C(=O)O; Lauroyl = CCCCCCCCCCCC(=O)*; 4Amb = NCc1ccc(C(=O)O)cc1; Octanoyl = CCCCCCCC(=O)*; Api = NC1(C(=O)O)CCNCC1; PEG2 = NCCOCCOCCC(=O)O; Ahx = NCCCCCC(=O)O; azaGly = NNC(=O)O; Sar = CNCC(=O)O

Target: human kisspeptin receptor (Homo sapiens (Human), UniProt Q969F8)
Assay: Human KISS1R binding assay (membrane competition binding)
Conditions: 90 min at room temperature; competition with 0.2 nM [125I]-metastin (45-54); Flp-In T-Rex 293 kisspeptin membranes; metal complexes nonradioactive Ga, In, Lu; read-out: hKiSSR Binding Ki (90 min)
Method in brief: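 Membranes from tetracycline-induced (48 h) Flp-In T-Rex 293 cells expressing receptor, 5–10 μg, incubated 90 min at room temperature with 0.2 nM [125I]-metastin (45-54) and competitor (typically 0–10,000 nM) in Tris/Mg/Ca/EGTA/0.1% BSA, pH 7.4. Filtration, washing, counting; Ki by non-linear regression.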

human kisspeptin receptor, sequence (Q969F8 whole entry): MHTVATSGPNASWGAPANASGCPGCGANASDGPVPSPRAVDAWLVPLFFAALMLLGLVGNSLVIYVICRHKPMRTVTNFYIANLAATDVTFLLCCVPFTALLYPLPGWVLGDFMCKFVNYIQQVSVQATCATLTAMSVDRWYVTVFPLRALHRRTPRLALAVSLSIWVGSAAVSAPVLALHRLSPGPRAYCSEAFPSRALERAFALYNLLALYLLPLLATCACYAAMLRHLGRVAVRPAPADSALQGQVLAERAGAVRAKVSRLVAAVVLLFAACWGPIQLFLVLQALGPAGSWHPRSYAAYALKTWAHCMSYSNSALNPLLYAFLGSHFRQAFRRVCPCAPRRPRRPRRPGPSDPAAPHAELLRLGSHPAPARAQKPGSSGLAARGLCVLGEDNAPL

| Ki | SMILES |
| --- | --- |
| < 10 nM | Cc1ccc(CNCC(=O)N2CCC(NC(=O)[C@H](CC(C)C)NC(=O)NNC(=O)[C@H](CC3CCCCC3)NC(=O)[C@@H](NC(=O)[C@H](CC(N)=O)NC(=O)[C@@H](Cc3ccc4ccccc4c3)NC(=O)[C@@H](Cc3ccc(O)cc3)NC(=O)CN3CCN(CC(=O)O)CCN(CC(=O)O)CCN(CC(=O)O)CC3)[C@@H](C)O)(C(=O)N[C@@H](Cc3c[nH]c4ccccc34)C(N)=O)CC2)cc1F [Compound 318] ({DOTA}-[dY][d2Nal]NT[Cha][azaGly]L[Api](Gly(N-(3-F-4-Me-benzyl)))W-NH2) |
| < 10 nM | COc1ccc(CNCC(=O)N2CCC(NC(=O)[C@H](CC(C)C)NC(=O)NNC(=O)[C@H](Cc3ccccc3)NC(=O)[C@@H](NC(=O)[C@H](CC(N)=O)NC(=O)CCCCCNC(=O)CN3CCN(CC(=O)O)CCN(CC(=O)O)CCN(CC(=O)O)CC3)[C@@H](C)O)(C(=O)N[C@@H](Cc3ccccc3)C(N)=O)CC2)cc1 [Compound 235] ({DOTA-Ahx}-NTF[azaGly]L[Api](Gly(Nα-4-MeO-benzyl))F-NH2) |
| < 10 nM | Cc1ccc(CNCC(=O)N2CCC(NC(=O)[C@H](CC(C)C)NC(=O)NNC(=O)[C@H](Cc3ccccc3)NC(=O)[C@@H](NC(=O)[C@H](CC(N)=O)NC(=O)[C@@H](Cc3c[nH]c4ccccc34)NC(=O)[C@@H](Cc3ccc(O)cc3)NC(=O)CCCCCNC(=O)CN3CCN(CC(=O)O)CCN(CC(=O)O)CCN(CC(=O)O)CC3)[C@@H](C)O)(C(=O)N[C@@H](Cc3c[nH]c4ccccc34)C(N)=O)CC2)cc1F [Compound 1] ({DOTA-Ahx}-[dY][dW]NTF[azaGly]L[Api](Gly(N-(3-F-4-Me-benzyl)))W-NH2) |
| < 10 nM | CCCCCCCCCCCC(=O)N[C@H](Cc1ccc(O)cc1)C(=O)N[C@H](Cc1ccc2ccccc2c1)C(=O)N[C@@H](CC(N)=O)C(=O)N[C@H](C(=O)N[C@@H](Cc1ccccc1)C(=O)NNC(=O)N[C@@H](CC(C)C)C(=O)NC1(C(=O)N[C@@H](Cc2c[nH]c3ccccc23)C(N)=O)CCN(C(=O)CNC)CC1)[C@@H](C)O [Compound 400] (Lauroyl-[dY][d2Nal]NTF[azaGly]L[Api](Sar)W-NH2) |
| < 10 nM | CCCCCCCC(=O)N[C@H](Cc1ccc(O)cc1)C(=O)N[C@@H](CCCCNC(=O)CN1CCN(CC(=O)O)CCN(CC(=O)O)CCN(CC(=O)O)CC1)C(=O)N[C@@H](CC(N)=O)C(=O)N[C@H](C(=O)N[C@@H](Cc1ccccc1)C(=O)NNC(=O)N[C@@H](CC(C)C)C(=O)NC1(C(=O)N[C@@H](Cc2c[nH]c3ccccc23)C(N)=O)CCN(C(=O)CNCc2ccc(C)c(F)c2)CC1)[C@@H](C)O [Compound 181] (Octanoyl-[dY]K(DOTA)NTF[azaGly]L[Api](Gly(N-(3-F-4-Me-benzyl)))W-NH2) |
| < 10 nM | Cc1ccc(CNCC(=O)N2CCC(NC(=O)[C@H](CC(C)C)NC(=O)NNC(=O)[C@H](CC3CCCCC3)NC(=O)[C@@H](NC(=O)[C@H](CC(N)=O)NC(=O)[C@@H](Cc3ccncc3)NC(=O)[C@@H](Cc3ccc(O)cc3)NC(=O)CCCCCNC(=O)CN3CCN(CC(=O)O)CCN(CC(=O)O)CCN(CC(=O)O)CC3)[C@@H](C)O)(C(=O)N[C@@H](Cc3c[nH]c4ccccc34)C(N)=O)CC2)cc1F [Compound 316] ({DOTA-Ahx}-[dY][d4Pal]NT[Cha][azaGly]L[Api](Gly(N-(3-F-4-Me-benzyl)))W-NH2) |
| > 100 nM | Cc1ccc(CNCC(=O)N2CCC(NC(=O)[C@H](CC(C)C)NC(=O)NNC(=O)[C@H](Cc3ccncc3)NC(=O)[C@@H](NC(=O)[C@H](CC(N)=O)NC(=O)CN3CCC(NC(=O)CN4CCN(CC(=O)O)CCN(CC(=O)O)CCN(CC(=O)O)CC4)CC3)[C@@H](C)O)(C(=O)N[C@@H](Cc3ccncc3)C(N)=O)CC2)cc1F [Compound 258] ({DOTA}-[X1]NT[4Pal][azaGly]L[Api](Gly(N-(3-F-4-Me-benzyl)))[4Pal]-NH2) |
| < 10 nM | COc1ccc(CNCC(=O)N2CCC(NC(=O)[C@H](CC(C)C)NC(=O)NNC(=O)[C@H](Cc3ccccc3)NC(=O)[C@@H](NC(=O)[C@H](CC(N)=O)NC(=O)[C@@H](Cc3ccncc3)NC(=O)[C@@H](Cc3ccc(O)cc3)NC(=O)CCCCCNC(=O)CN3CCN(CC(=O)O)CCN(CC(=O)O)CCN(CC(=O)O)CC3)[C@@H](C)O)(C(=O)N[C@@H](Cc3ccncc3)C(N)=O)CC2)cc1 [Compound 299] ({DOTA-Ahx}-[dY][d4Pal]NTF[azaGly]L[Api](Gly(Nα-4-MeO-benzyl))[4Pal]-NH2) |
| < 10 nM | Cc1ccc(CNCC(=O)N2CCC(NC(=O)[C@H](CC(C)C)NC(=O)NNC(=O)[C@H](Cc3ccccc3)NC(=O)[C@@H](NC(=O)[C@H](CC(N)=O)NC(=O)c3ccc(CNC(=O)CN4CCN(CC(=O)O)CCN(CC(=O)O)CCN(CC(=O)O)CC4)cc3)[C@@H](C)O)(C(=O)N[C@@H](Cc3ccc(C#N)cc3)C(N)=O)CC2)cc1F [Compound 240] ({DOTA-4Amb}-NTF[azaGly]L[Api](Gly(N-(3-F-4-Me-benzyl)))[Phe(4-CN)]-NH2) |
| < 10 nM | CNCC(=O)N1CCC(NC(=O)[C@H](CC(C)C)NC(=O)NNC(=O)[C@H](CC2CCCCC2)NC(=O)[C@@H](NC(=O)[C@H](CC(N)=O)NC(=O)[C@H](CCCCNC(=O)CN2CCN(CC(=O)O)CCN(CC(=O)O)CCN(CC(=O)O)CC2)NC(=O)[C@@H](Cc2ccc(O)cc2)NC(=O)CCOCCOCCNC(=O)CCc2ccc(C)cc2)[C@@H](C)O)(C(=O)N[C@H](Cc2c[nH]c3ccccc23)C(N)=O)CC1 [Compound 356] ({Hydrocinnamoyl(4-Me)-PEG2}-[dY]K(DOTA)NT[Cha][azaGly]L[Api](Sar)[dW]-NH2) |
| < 10 nM | Cc1ccc(CCCC(=O)NCCCC[C@@H](NC(=O)CCCCCNC(=O)CN2CCN(CC(=O)O)CCN(CC(=O)O)CCN(CC(=O)O)CC2)C(=O)N[C@H](Cc2ccc(O)cc2)C(=O)N[C@H](Cc2ccc3ccccc3c2)C(=O)N[C@@H](CC(N)=O)C(=O)N[C@H](C(=O)N[C@@H](Cc2ccccc2)C(=O)NNC(=O)N[C@@H](CC(C)C)C(=O)NC2(C(=O)N[C@@H](Cc3ccccc3)C(N)=O)CCN(C(=N)N)CC2)[C@@H](C)O)cc1 [Compound 309] ({DOTA-Ahx}-[dK](Butanoyl(4-(4-MePh)))[dY][d2Nal]NTF[azaGly]L[Api(1-amidino)]F-NH2) |
| < 10 nM | Cc1ccc(CNCC(=O)N2CCC(NC(=O)[C@H](CC(C)C)NC(=O)NNC(=O)[C@H](Cc3cccc(F)c3)NC(=O)[C@@H](NC(=O)[C@H](CC(N)=O)NC(=O)[C@H](Cc3c[nH]c4ccccc34)NC(=O)[C@@H](Cc3ccc(O)cc3)NC(=O)CCCCCNC(=O)CN3CCN(CC(=O)O)CCN(CC(=O)O)CCN(CC(=O)O)CC3)[C@@H](C)O)(C(=O)N[C@@H](Cc3c[nH]c4ccccc34)C(N)=O)CC2)cc1F [Compound 35] ({DOTA-Ahx}-[dY]WNT[Phe(3-F)][azaGly]L[Api](Gly(N-(3-F-4-Me-benzyl)))W-NH2) |
| > 100 nM | Cc1ccc(CNCC(=O)N2CCC(NC(=O)c3cccc(CNC(=O)[C@H](Cc4ccccc4)NC(=O)CCCCCNC(=O)CN4CCN(CC(=O)O)CCN(CC(=O)O)CCN(CC(=O)O)CC4)n3)(C(=O)N[C@@H](Cc3c[nH]c4ccccc34)C(N)=O)CC2)cc1F [Compound 135] |
| 10 to 100 nM | Cc1ccc(CNCC(=O)N2CCC(NC(=O)[C@H](CC(C)C)NC(=O)NNC(=O)[C@H](Cc3ccccc3)NC(=O)CCCCCNC(=O)CN3CCN(CC(=O)O)CCN(CC(=O)O)CCN(CC(=O)O)CC3)(C(=O)N[C@@H](CC3CCCCC3)C(N)=O)CC2)cc1F [Compound 141] ({DOTA-Ahx}-F[azaGly]L[Api](Gly(N-(3-F-4-Me-benzyl)))[Cha]-NH2) |
| < 10 nM | Cc1ccc(CNCC(=O)N2CCC(NC(=O)[C@H](CC(C)C)NC(=O)NNC(=O)[C@H](Cc3cccc(F)c3)NC(=O)[C@@H](NC(=O)[C@H](CC(N)=O)NC(=O)[C@H](CCCCN)NC(=O)CN3CCC(NC(=O)CN4CCN(CC(=O)O)CCN(CC(=O)O)CCN(CC(=O)O)CC4)CC3)[C@@H](C)O)(C(=O)N[C@@H](Cc3c[nH]c4ccccc34)C(N)=O)CC2)cc1F [Compound 164] ({DOTA}-[X1]KNT[Phe(3-F)][azaGly]L[Api](Gly(N-(3-F-4-Me-benzyl)))W-NH2) |
| 10 to 100 nM | Cc1ccc(CNCC(=O)N2CCC(NC(=O)[C@H](CC(C)C)NC(=O)CN(C)C(=O)[C@H](Cc3ccccc3)NC(=O)CCCCCNC(=O)CN3CCN(CC(=O)O)CCN(CC(=O)O)CCN(CC(=O)O)CC3)(C(=O)N[C@@H](Cc3c[nH]c4ccccc34)C(N)=O)CC2)cc1F [Compound 12] ({DOTA-Ahx}-F[Sar]L[Api](Gly(N-(3-F-4-Me-benzyl)))W-NH2) |
| 10 to 100 nM | Cc1ccc(CNCC(=O)N2CCC(NC(=O)[C@H](CC(C)C)NC(=O)NNC(=O)[C@H](Cc3ccccc3)NC(=O)[C@@H](CC(N)=O)NC(=O)[C@@H](CC(N)=O)NC(=O)CN3CCN(CC(=O)O)CCN(CC(=O)O)CCN(CC(=O)O)CC3)(C(=O)N[C@@H](Cc3c[nH]c4ccccc34)C(N)=O)CC2)cc1F [Compound 18] ({DOTA}-[dN][dN]F[azaGly]L[Api](Gly(N-(3-F-4-Me-benzyl)))W-NH2) |
| < 10 nM | CC(C)C[C@H](NC(=O)NNC(=O)[C@H](Cc1ccccc1)NC(=O)[C@@H](NC(=O)[C@H](CC(N)=O)NC(=O)[C@@H](Cc1ccc2ccccc2c1)NC(=O)[C@@H](Cc1ccc(O)cc1)NC(=O)CCOCCOCCNC(=O)CCc1ccc(I)cc1)[C@@H](C)O)C(=O)NC1(C(=O)N[C@@H](Cc2ccccc2)C(N)=O)CCN(C(=N)N)CC1 [Compound 396] ({Hydrocinnamoyl(4-I)-PEG2}-[dY][d2Nal]NTF[azaGly]L[Api(1-amidino)]F-NH2) |
| < 10 nM | CNCC(=O)N1CCC(NC(=O)[C@H](CC(C)C)NC(=O)NNC(=O)[C@H](Cc2ccccc2)NC(=O)[C@@H](NC(=O)[C@H](CC(N)=O)NC(=O)[C@@H](Cc2ccc3ccccc3c2)NC(=O)[C@@H](Cc2ccc(O)cc2)NC(C)=O)[C@@H](C)O)(C(=O)N[C@@H](Cc2c[nH]c3ccccc23)C(N)=O)CC1 [Compound 393] (Ac-[dY][d2Nal]NTF[azaGly]L[Api](Sar)W-NH2) |
| < 10 nM | Cc1ccc(CNCC(=O)N2CCC(NC(=O)[C@H](CC(C)C)NC(=O)NNC(=O)[C@H](Cc3ccccc3)NC(=O)CN3CCC(NC(=O)CN4CCN(CC(=O)O)CCN(CC(=O)O)CCN(CC(=O)O)CC4)CC3)(C(=O)N[C@@H](Cc3ccccc3)C(N)=O)CC2)cc1F [Compound 245] ({DOTA}-[X1]F[azaGly]L[Api](Gly(N-(3-F-4-Me-benzyl)))F-NH2) |
